# Assays:
# [1] = molecular target: T1, RGS2-FBXO44 interaction (Homo sapiens, UniProt P41220); assay: Coimmunoprecipitation of RGS2-HA and FLAG-FBXO44; assay type: cell-based; details: 100 μM; anti-HA IP, FLAG-FBXO44 normalized to input, vs DMSO
# T1 construct: expressed in transfected cells
# T1 sequence (P41220 1-211): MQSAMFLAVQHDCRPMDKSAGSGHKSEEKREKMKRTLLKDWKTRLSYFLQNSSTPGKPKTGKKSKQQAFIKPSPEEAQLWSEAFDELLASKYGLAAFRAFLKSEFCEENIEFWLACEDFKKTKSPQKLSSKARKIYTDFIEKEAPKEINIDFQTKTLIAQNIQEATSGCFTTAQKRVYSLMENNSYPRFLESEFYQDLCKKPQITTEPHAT
# Experimental: The cells were harvested in RIPA buffer containing protease inhibitors. The cells were then lysed by incubating on ice with occasional vortexing for 30 minutes. The cell lysates were centrifuged at 9600 × g for 10 minutes, and the supernatants were precleared by incubating with 40 μL prewashed protein A agarose beads (Roche) for 1 hour with slow rotation at 4 °C. The samples were then centrifuged at 10,000 rpm for 1 minute, and the supernatant was used to determine total protein concentration with the Pierce BCA Protein Assay Kit (Thermo Scientific). In total, 500 μg of total protein was used for each reaction. The samples were incubated with 100 μM compound 10 for 30 minutes with rotation at 4 °C. An equal amount of DMSO was used as a vehicle. Additionally, 20 μL was removed from each sample (input); 3 μL of rabbit anti-HA antibody (H6908; Sigma Aldrich) and 40μL of protein A agarose beads (Roche) were added to each sample prior to incubation on rotator at 4 °C overnight. The samples were centrifuged at 9600 × g for 5 minutes at 4 °C, and the supernatant was removed. The samples were washed once with 1 mL RIPA buffer and then 3× with 1 mL PBS. Bound proteins were eluted by heating the samples at 95 °C in 30 μL of SDS sample buffer for 10 minutes. The samples were centrifuged at 10,000 rpm for 5 minutes at 4 °C, and the supernatants were subjected to SDS-PAGE and western blot analysis. […]
# [2] = molecular target: T2, RGS2 (Homo sapiens, UniProt P41220); assay: Cellular thermal shift assay (CETSA), RGS2-HA; assay type: binding; details: 100 μM overnight (16–18 hours); gradient 40–60 °C; vs DMSO
# T2 construct: Because both full-length RGS2 and FBXO44 are extremely difficult to express as recombinant proteins, we opted for a cell-based method; expressed in transfected cells; host or cells: HEK-293T, transient transfection
# T2 sequence (P41220 1-211): T1 sequence (P41220 1-211)
# Experimental: The cells in 100 mm dishes were harvested by trypsination in reduced serum media and transferred to 15 mL conical tubes. The cells were centrifuged at 300 × g for 3 minutes. Media was removed, and the cell pellet was washed with 10 mL of PBS. The cells were then resuspended in 500 μL of PBS and aliquoted into polymerase chain reaction (PCR) tubes. The cells were then heated in a PCR gradient (40–60 °C) for 3 minutes and then transferred to a 25 °C PCR block for 3 minutes. Following this, cells were immediately flash-frozen using liquid nitrogen. The cells were freeze-thawed 3 times to lyse the cells and then spun down at 20,000 × g for 20 minutes. The supernatant was then added to sample buffer and heated for 5 minutes at 95 °C before SDS-PAGE and western blot analysis.
# We next assessed whether the action of compound 10 to inhibit the RGS2-FBXO44 interaction is through direct binding to either protein. […] The cells were lysed and analyzed by western blot to determine melting temperatures (Tm). […] We also assessed the effect of compound 10 on the Tm for RGS4, which is closely related to RGS2 and also subject to proteasomal degradation, however, independent of FBXO44 ([Lee et al, 2005]; [Sjögren et al, 2015]).
# [3] = molecular target: T1, RGS2-FBXO44 interaction; assay: RGS2-FBXO44 NanoBit assay (HEK-293T RGS2-SmBiT/LgBiT-FBXO44 stable clone #6); assay type: cell-based
# Experimental: Nano-Glo Live Cell Substrate (LCS) was diluted 1:50 in HBSS to form a 2× stock, and then, 15 μL was added to each well. Plates were shaken on an orbital shaker at 500 rpm for 5 minutes protected from light and then spun down at 1000 rpm for 30 seconds. Plates were incubated at room temperature for 20 minutes, and then, luminescence was detected on a Synergy Neo2 multimode plate reader.
# HEK-293T-RGS2-FBXO44 NanoBit cells were treated for 16–18 hours with compound at 100 μM. This relatively high concentration was chosen because of the challenging nature of our assay (intracellular PPI inhibition). Parental HEK-293T cells were used as a negative control. […] Based on these criteria, 97 compounds were identified as hits from our primary screen (6.1% initial hit rate). To confirm hits, the same assay was repeated in triplicate, which delivered 34 compounds that reached the threshold for inhibition in at least 2 replicates with <25% cell toxicity (Fig. 2C; Supplemental Table 1), thus rendering a final hit rate of 2.1%.
# Fresh powders of 20 compounds were purchased and reassayed for their ability to inhibit the RGS2-FBXO44 NanoBit signal, using the same assay paradigm as in the primary screen (Fig. 3; Table 1). […] Nevertheless, all compounds were confirmed to inhibit the RGS2-FBXO44 NanoBit signal at this high concentration.
# We next assessed the concentration-dependent effect of our 20 hits. Compounds were assayed at concentrations ranging from 500 to 0.01 μM. NanoBit luminescence (relative luminescence units) was normalized to viability (RFU) and presented as a percentage of untreated cells.
smiles,measurement,setting,value
CCC1CCCCN1S(=O)(=O)c1cc(Br)ccc1OC (stereo not shown) [Compound 10],Association between RGS2 and FBXO44 (co-IP),[1],almost completely blocked
same,Increase in the Tm for RGS2,[2],2.4 °C
same,% Inhibition @ 100 μM of RGS2-FBXO44 NanoBit signal,"[3]; 100 μM, 16–18 hours, fresh powder, luminescence normalized to viability, vs nontreated cells",71.7∗∗∗∗ %
same,IC50,"[3]; concentrations 500 to 0.01 μM, RLU normalized to viability (RFU), read-out: IC50 (μM), inhibition of RGS2-FBXO44 NanoBit signal",19.6 µM

# Reference: article PMC13095444, “Discovery of RGS2-FBXO44 interaction inhibitors using a cell-based NanoBit assay” (Molecular Pharmacology, 2025)
